Measurements as given in EP0760362B1, “DIAMINOMETHYLIDENE DERIVATIVE” (NISSHIN SEIFUN GROUP INC., priority 1994, dated 1995).

Tested on: longitudinal muscle sample (including myenteric plexus) prepared from the ileum
Assay: Acetylcholine-release promoting action: contraction of electrically stimulated ileal longitudinal muscle in Magnus' tube
Design: species or system guinea pig
Settings: increase ratio in contraction by electrical stimulation, isometrically recorded
Experimental: Acetylcholine-release promoting action of the present compounds in the gastrointestinal tract was investigated according to the following procedure. A longitudinal muscle sample (including myenteric plexus) was prepared from the ileum excised from guinea pig and suspended in Magnus' tube. This sample was perfused in a physiological salt solution and stimulated by the electric current via platinum electrodes. […] This contraction was isometrically recorded. Accordingly, the drug capable of accelerating the release of acetylcholine could enhance the contraction caused by electric stimulation only. Evaluation of the compounds was represented in terms of increase ratio in contraction by electrical stimulation. The tested compounds are shown in terms of the numbers of the corresponding Examples.

Structure (SMILES) | Contraction increase rate (%) (10^-5M) | Contraction increase rate (%) (10^-7M)
N#CC(C#N)=C(NCc1ccccc1)NCC1CN(Cc2ccc(F)cc2)CCO1 (centres unmarked) [Example 1, 2-Benzylamino-2-[4-(p-fluorobenzyl)-2-morpholinylmethylamino]-1,1-ethylenedicarbonitrile] | 12.3% | 3.9%
N#CC(C#N)=C(NCC1CN(Cc2ccc(F)cc2)CCO1)NC1CCCCC1 (centres unmarked) [Example 2, 2-Cyclohexylamino-2-[4-(p-fluorobenzyl)-2-morpholinylmethylamino]-1,1-ethylenedicarbonitrile] | 5.3% | –
CC(C)CNC(NCC1CN(Cc2ccc(F)cc2)CCO1)=C(C#N)C#N (centres unmarked) [Example 5, 2-[4-(p-Fluorobenzyl)-2-morpholinylmethylamino]-2-isobutylamino-1,1-ethylenedicarbonitrile] | 4.9% | –
CCOC(=O)C(C#N)=C(NCc1ccccc1)NCC1CN(Cc2ccc(F)cc2)CCO1 (centres unmarked) [Example 6, Ethyl 3-benzylamino-3-[4-(p-fluorobenzyl)-2-morpholinylmethylamino]-2-cyanoacrylate] | 20.3% | 3.0%
CCOC(=O)C(C#N)=C(NCC1CN(Cc2ccc(F)cc2)CCO1)Nc1ccccc1 (centres unmarked) [Example 7, Ethyl 3-[4-(p-fluorobenzyl)-2-morpholinylmethylamino]-3-phenylamino-2-cyanoacrylate] | – | 0.7%
CCOC(=O)C(C#N)=C(NCC(C)C)NCC1CN(Cc2ccc(F)cc2)CCO1 (centres unmarked) [Example 8, Ethyl 3-[4-(p-fluorobenzyl)-2-morpholinylmethylamino]-3-isobutylamino-2-cyanoacrylate] | 32.4% | 8.5%
CCOC(=O)C(C#N)=C(NCC1CN(Cc2ccc(F)cc2)CCO1)NC1CCCCC1 (centres unmarked) [Example 9, Ethyl 3-cyclohexylamino-3-[4-(p-fluorobenzyl)-2-morpholinylmethylamino]-2-cyanoacrylate] | 31.9% | 8.7%
CCOC(=O)C(C#N)=C(NCC1CN(Cc2ccc(F)cc2)CCO1)Nc1ccc(OC)cc1 (centres unmarked) [Example 10] | 11.8% | 9.1%
CCOC(=O)C(C#N)=C(NCCOCCNCc1ccc(F)cc1)NC1CCCCC1 [Example 12, Ethyl 3-cyclohexylamino-3-[7-(p-fluorophenyl)-6-aza-3-oxaheptylamino]-2-cyanoacrylate] | 7.9% | 0.8%
N#CC(C#N)=C(NCc1ccc(F)cc1)NCC1CN(Cc2ccc(F)cc2)CCO1 (centres unmarked) [Example 13, 2-(p-Fluorobenzylamino)-2-[4-(p-fluorobenzyl)-2-morpholinylmethylamino]-1,1-ethylenedicarbonitrile] | 15.0% | 4.9%
CNC(NC1CC2COCC(C1)N2Cc1ccc(F)cc1)=C(C#N)C#N (stereo not drawn) [Example 15, 2-[endo-9-(p-Fluorobenzyl)-9-aza-3-oxabicyclo[3.3.1]non-7-ylamino]-2-methylamino-1,1-ethylenedicarbonitrile] | – | 3.9%
CNC(NC1CC2COCC(C1)N2CCCOc1ccc(F)cc1)=C(C#N)C#N (stereo not drawn) [Example 16, 2-[endo-9-[3-(p-Fluorophenoxy)propyl]-9-aza-3-oxabicyclo-[3.3.1]non-7-ylamino]-2-methylamino-1,1-ethylenedicarbonitrile] | – | 3.1%
CNC(=C[N+](=O)[O-])NC1CC2COCC(C1)N2Cc1ccc(F)cc1 (stereo not drawn) [Example 17, N-[endo-9-(p-Fluorobenzyl)-9-aza-3-oxabicyclo[3.3.1]non-7-yl]-N'-methyl-2-nitrovinylidene-1,1-diamine] | 5.7% | 3.2%
CNC(=O)NCC1CN(Cc2ccc(F)cc2)CCO1 (centres unmarked) [Example 19, 1-[4-(p-Fluorobenzyl)-2-morpholinylmethyl]-3-methylurea] | – | 9.8%
CNC(=O)NC1CC2COCC(C1)N2Cc1ccc(F)cc1 (stereo not drawn) [Example 20, 1-[endo-9-(p-Fluorobenzyl)-9-aza-3-oxabicyclo[3.3.1]non-7-yl]-3-methylurea] | – | 4.2%
